Where two headings read alike, the source gives them in different places.
How the values were obtained:
[1] = system: Pseudoperonospora cubensis (PSPECU); conditions: in vivo
[2] = system: Phytophthora infestans (PHYTIN); type: in vivo; conditions: for % disease at 500 ppm of substance alone PHYTIN: substance alone 500 ppm, untreated check 95
[3] = system: Plasmopara viticola (PLASVI); type: in vivo; conditions: for Reduction in percent disease: aldehyde derivative 100 ppm with mancozeb, PLASVI; for % disease at 500 ppm of substance alone PLASVI: substance alone 500 ppm, untreated check 95
[4] = system: Pseudoperonospora cubensis (PSPECU); test: Droplet application on cucumber leaf, growth chamber (Examples 5a-d); type: in vivo; conditions: for % disease at 100 ppm of substance alone: substance alone 100 ppm, untreated check 92%; for % disease at 500 ppm of substance alone: substance alone 500 ppm, untreated check 91%
Procedure: Examples 5a through 5d were conducted in growth chambers on cucumber plants. Cucumbers (Cucumis sativus cv Bush Pickle Hybrid #901261) were grown from seed in 5 cm by 5 cm pots containing MetroMix™ growth medium (Scotts, Marysville, Ohio) and maintained in a glasshouse with supplementary light sources to provide a 14 hour photoperiod at 24-29° C. until the plants were in the 2-3 true leaf stage of growth and the oldest leaf was fully expanded.
For examples 5a through 5d, described below, samples of mancozeb formulated as Dithane DG NT were dissolved in water to form a ½×dilution series. Mancozeb rates were 400, 200, 100 and 50 ppm. Samples of various aldehydes, amino acids, carboxylic acids, amines and alcohols were dissolved in acetone and then mixed with aqueous solutions of mancozeb. Attractant rates in the dilute solutions were 100, 200, 500 or 1000 ppm, depending on the experiment.
Mixtures of attractant or attractant derivative plus mancozeb or mancozeb alone were applied to cucumber as a row of 5 or 7.5 ul droplets using a multi-channel pipetting device. Five droplets spaced 1 cm apart were placed along the mid-rib of the expanded cucumber leaf with the first droplet being positioned at least 1-cm from the leaf apex. Each treatment was replicated three or four times, depending on the experiment. Two to three hours after applying the treatments when droplets had dried, plants were inoculated with a suspension of sporangia of a Pseudoperonospora cubensis (PSPECU) and incubated as described in the methods for sprayed tests. When symptoms were well developed in untreated check plants, the experiment was assessed visually using a template 2 cm wide and 7 cm long with the long axis centered on the mid-rib of the treated leaf.
Reduction in percent disease was calculated by subtracting percent disease on plants receiving a mixture of mancozeb plus the specified test substance from percent disease on plants receiving mancozeb alone. The results for examples 5a-5d are shown below in Tables 7-10; the reduction in percent disease was indicated as follows: […]

[5] = fungicide with Formulation I at 100 ppm, Table 19
[6] = aldehyde derivative 500 ppm with mancozeb, Table 16
[7] = fungicide with Formulation I at 100 ppm, Table 18
[8] = substance 100 ppm with mancozeb 200 ppm vs mancozeb alone, Table 9
[9] = substance 500 ppm with mancozeb 200 ppm vs mancozeb alone, Table 8
[10] = substance 500 ppm with mancozeb 25 ppm (Dithane DGNT), foliar spray, inoculated 2 to 3 hours after treatment
[11] = substance 500 ppm with mancozeb 6.25 ppm (Dithane DGNT), foliar spray, inoculated 2 to 3 hours after treatment

Structure (SMILES): COc1ccc(C(=CC(=O)N2CCOCC2)c2ccc(Cl)cc2)cc1OC [Dimethomorph]
- Reduction in percent disease PSPECU [1]: x (key: x: 0-20% reduction in percent disease; xx: 21-35% reduction in percent disease; xxx: 36-50% reduction in percent disease; xxxx: >50% reduction in percent disease)
- Reduction in percent disease PHYTIN [2, 5]: x (0-20% reduction in percent disease)
- Reduction in percent disease PLASVI [3, 5]: xx (21-35% reduction in percent disease)

Structure (SMILES): CC(C)C/C=N/NC(=O)CCCCCCCCC(=O)N/N=C/CC(C)C [Compound J]
- Reduction in percent disease [1]: xx (key: x: 0-20% reduction in percent disease; xx: 21-35% reduction in percent disease; xxx: 36-50% reduction in percent disease; xxxx: >50% reduction in percent disease)
- Reduction in percent disease ([3]; Table 15): x (0-20% reduction in percent disease)

Structure (SMILES): C/C(CC(C)C)=N\NC(=O)Nc1ccccc1 [Compound O]
- Reduction in percent disease PSPECU [1]: xx (key: x: 0-20% reduction in percent disease; xx: 21-35% reduction in percent disease; xxx: 36-50% reduction in percent disease; xxxx: >50% reduction in percent disease)
- Reduction in percent disease PHYTIN [2, 6]: xx (21-35% reduction in percent disease)
- Reduction in percent disease PLASVI [3, 6]: x (0-20% reduction in percent disease)

Structure (SMILES): CC(C)(C)C/C=N/NC(=O)c1cccc(C(=O)N/N=C/CC(C)(C)C)c1 [Compound S]
- Reduction in percent disease PSPECU [1]: x (key: x: 0-20% reduction in percent disease; xx: 21-35% reduction in percent disease; xxx: 36-50% reduction in percent disease; xxxx: >50% reduction in percent disease)
- Reduction in percent disease PHYTIN [2, 6]: xx (21-35% reduction in percent disease)
- Reduction in percent disease PLASVI [3, 6]: x (0-20% reduction in percent disease)

Structure (SMILES): C#CCOc1ccc(CCNC(=O)C(OCC#C)c2ccc(Cl)cc2)cc1OC (centres unmarked) [Mandipropamid]
- Reduction in percent disease PSPECU [1]: x (key: x: 0-20% reduction in percent disease; xx: 21-35% reduction in percent disease; xxx: 36-50% reduction in percent disease; xxxx: >50% reduction in percent disease)
- Reduction in percent disease PHYTIN [2, 5]: x (0-20% reduction in percent disease)
- Reduction in percent disease PLASVI [3, 5]: xx (21-35% reduction in percent disease)

Structure (SMILES): CC(C)C/C=N/NC(=O)c1ccccc1 [Compound I]
- Reduction in percent disease [1]: xx (key: x: 0-20% reduction in percent disease; xx: 21-35% reduction in percent disease; xxx: 36-50% reduction in percent disease; xxxx: >50% reduction in percent disease)

Structure (SMILES): CC(C)C/C=N/NC(N)=O [Compound D]
- Reduction in percent disease [1]: xx (key: x: 0-20% reduction in percent disease; xx: 21-35% reduction in percent disease; xxx: 36-50% reduction in percent disease; xxxx: >50% reduction in percent disease)
- Reduction in percent disease ([3]; Table 13): x (0-20% reduction in percent disease)

Structure (SMILES): CC(C)C/C=N/NC(=O)CCCC(=O)N/N=C/CC(C)C [Compound E]
- Reduction in percent disease [1]: xxx (key: x: 0-20% reduction in percent disease; xx: 21-35% reduction in percent disease; xxx: 36-50% reduction in percent disease; xxxx: >50% reduction in percent disease)
- Reduction in percent disease ([3]; Table 13): xx (21-35% reduction in percent disease)

Structure (SMILES): CC(C)CC=NNC(=O)c1cccc(C(=O)N/N=C/CC(C)C)c1 [Compound C]
- Reduction in percent disease [1]: xxx (key: x: 0-20% reduction in percent disease; xx: 21-35% reduction in percent disease; xxx: 36-50% reduction in percent disease; xxxx: >50% reduction in percent disease)
- Reduction in percent disease ([3]; Table 13): xx (21-35% reduction in percent disease)
- Reduction in percent disease ([3]; Table 15): xx (21-35% reduction in percent disease)

Structure (SMILES): COC(=O)N(OC)c1ccccc1COc1ccn(-c2ccc(Cl)cc2)n1 [Pyraclostrobin]
- Reduction in percent disease PSPECU [1]: x (key: x: 0-20% reduction in percent disease; xx: 21-35% reduction in percent disease; xxx: 36-50% reduction in percent disease; xxxx: >50% reduction in percent disease)
- Reduction in percent disease PHYTIN [2, 7]: x (0-20% reduction in percent disease)

Structure (SMILES): CC(C)C/C=N/NC(=O)C(=O)N/N=C/CC(C)C [Compound G]
- Reduction in percent disease [1]: xxx (key: x: 0-20% reduction in percent disease; xx: 21-35% reduction in percent disease; xxx: 36-50% reduction in percent disease; xxxx: >50% reduction in percent disease)
- Reduction in percent disease ([3]; Table 13): xx (21-35% reduction in percent disease)

Structure (SMILES): CC(C)C/C=N/NC(=O)CCCCC(=O)N/N=C/CC(C)C [Compound N]
- Reduction in percent disease [1]: xx (key: x: 0-20% reduction in percent disease; xx: 21-35% reduction in percent disease; xxx: 36-50% reduction in percent disease; xxxx: >50% reduction in percent disease)
- Reduction in percent disease ([3]; Table 15): x (0-20% reduction in percent disease)

Structure (SMILES): CC(=O)N/N=C/CC(C)C [Compound H]
- Reduction in percent disease [1]: xx (key: x: 0-20% reduction in percent disease; xx: 21-35% reduction in percent disease; xxx: 36-50% reduction in percent disease; xxxx: >50% reduction in percent disease)
- Reduction in percent disease ([3]; Table 13): xx (21-35% reduction in percent disease)

Structure (SMILES): CCCCCCCC(=O)N/N=C/CC(C)C [Compound K]
- Reduction in percent disease [1]: xx (key: x: 0-20% reduction in percent disease; xx: 21-35% reduction in percent disease; xxx: 36-50% reduction in percent disease; xxxx: >50% reduction in percent disease)
- Reduction in percent disease ([3]; Table 15): xx (21-35% reduction in percent disease)

Structure (SMILES): CCCCCCCCCCCCCCCCCC(=O)NN=CCC(C)C [Compound L]
- Reduction in percent disease [1]: xx (key: x: 0-20% reduction in percent disease; xx: 21-35% reduction in percent disease; xxx: 36-50% reduction in percent disease; xxxx: >50% reduction in percent disease)
- Reduction in percent disease ([3]; Table 15): xxx (36-50% reduction in percent disease)

Structure (SMILES): CC(C)C/C=N/NC(=O)N/N=C/CC(C)C [Compound F]
- Reduction in percent disease [1]: xx (key: x: 0-20% reduction in percent disease; xx: 21-35% reduction in percent disease; xxx: 36-50% reduction in percent disease; xxxx: >50% reduction in percent disease)
- Reduction in percent disease ([3]; Table 13): x (0-20% reduction in percent disease)

Structure (SMILES): CO/N=C(/C(=O)OC)c1ccccc1COc1ccccc1C [Kresoxim-methyl]
- Reduction in percent disease PSPECU [1]: x (key: x: 0-20% reduction in percent disease; xx: 21-35% reduction in percent disease; xxx: 36-50% reduction in percent disease; xxxx: >50% reduction in percent disease)
- Reduction in percent disease, Formul. II [1]: x (key: x: 0-20% reduction in percent disease; xx: 21-35% reduction in percent disease; xxx: 36-50% reduction in percent disease; xxxx: >50% reduction in percent disease)
- Reduction in percent disease PHYTIN [2, 7]: x (0-20% reduction in percent disease)

Structure (SMILES): O=C1c2ccccc2C(=O)N1SC(Cl)(Cl)Cl [Folpet]
- Reduction in percent disease, Formul. I [1]: x (key: x: 0-20% reduction in percent disease; xx: 21-35% reduction in percent disease; xxx: 36-50% reduction in percent disease; xxxx: >50% reduction in percent disease)
- Reduction in percent disease, Formul. I ([2]; PHYTIN, fungicide with Formulation I at 100 ppm of attractant derivative, Table 22): x (0-20% reduction in percent disease)

Structure (SMILES): CC(C)(C)CC=O [3,3-dimethylbutyraldehyde]
- Reduction in % Disease [4, 8]: x (0-20% reduction in percent disease)
- Reduction in % Disease [4, 9]: x (0-20% reduction in percent disease)
- % disease at 100 ppm of substance alone ([4]; Table 9): 96%
- % disease at 500 ppm of substance alone [4]: 75%
- Reduction in percent disease PHYTIN [2, 10]: x (0-20% reduction in percent disease)
- % disease at 500 ppm of substance alone PHYTIN [2]: 95%
- Reduction in percent disease PLASVI [3, 11]: x (0-20% reduction in percent disease)
- % disease at 500 ppm of substance alone PLASVI [3]: 87%

Structure (SMILES): O=CCC1CC1 [Cyclopropylacetaldehyde]
- Reduction in % Disease [4, 8]: x (0-20% reduction in percent disease)
- Reduction in % Disease [4, 9]: x (0-20% reduction in percent disease)
- % disease at 100 ppm of substance alone ([4]; Table 9): 85%
- % disease at 500 ppm of substance alone [4]: 90%
- Reduction in percent disease PHYTIN [2, 10]: x (0-20% reduction in percent disease)
- % disease at 500 ppm of substance alone PHYTIN [2]: 95%
- Reduction in percent disease PLASVI [3, 11]: xx (21-35% reduction in percent disease)
- % disease at 500 ppm of substance alone PLASVI [3]: 95%

Structure (SMILES): CCCC(=O)N/N=C/CC(C)C [Compound M]
- Reduction in percent disease [1]: xxx (key: x: 0-20% reduction in percent disease; xx: 21-35% reduction in percent disease; xxx: 36-50% reduction in percent disease; xxxx: >50% reduction in percent disease)
- Reduction in percent disease ([3]; Table 15): xx (21-35% reduction in percent disease)

Source: US20090246293A1 (priority 2008, published 2009)
